Test systems include HOP-92 NSCLC; DU-145 prostate; PC-3 prostate; HCT-116 colon; SK-MEL-28 melanoma; A549 NSCLC; SNB-75 CNS; MALME-3M melanoma; SK-MEL-2 melanoma; HOP-62 NSCLC.
What all share (assay): NCI tumour cell line growth inhibition, 48 h

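Following 48 hours of exposure in 96-well plates, responses at five concentrations were used to interpolate endpoints linearly. TGI marks complete inhibition of growth.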

With `O=C(O)C(F)(F)C(F)(F)C(F)(F)C(F)(F)C(=O)O`, the TGI with HOP-92 NSCLC, with DU-145 prostate, with PC-3 prostate, in the assay with HCT-116 colon, in the assay with SK-MEL-28 melanoma and with A549 NSCLC was over 100 µM each time. Besides, the TGI with SNB-75 CNS, in the assay with MALME-3M melanoma, with SK-MEL-2 melanoma and in the assay with HOP-62 NSCLC was over 100 µM each time.

Take `CCN(CC)c1ccc2c(c1)Oc1ccc(N(C(C)=O)c3ccccc3)cc1C21OC(=O)c2ccccc21` (centres undefined): the TGI in the assay on HOP-92 NSCLC, in the assay on DU-145 prostate, with PC-3 prostate, in the assay with HCT-116 colon, in the assay on SK-MEL-28 melanoma and with A549 NSCLC was over 100 µM throughout. The TGI with SNB-75 CNS, in the assay with MALME-3M melanoma, in the assay with SK-MEL-2 melanoma and in the assay with HOP-62 NSCLC was over 100 µM each time.

For the molecule `O=C1OC(C2Cc3ccccc3C2=O)c2ccccc21` (centres undefined), the TGI with HOP-92 NSCLC, with DU-145 prostate, with PC-3 prostate, in the assay with HCT-116 colon, with SK-MEL-28 melanoma and in the assay on A549 NSCLC was over 100 µM each time. The TGI in the assay on SNB-75 CNS, in the assay on MALME-3M melanoma, in the assay on SK-MEL-2 melanoma and in the assay on HOP-62 NSCLC was over 100 µM in each case.

With `CSc1nc2c(c(=O)n1C)N=C(c1ccc(Cl)cc1)CC(c1ccccc1)N2` (centres undefined), the TGI in the assay with HOP-92 NSCLC is over 100 µM; in the assay on DU-145 prostate, 73 µM; with PC-3 prostate it was over 100 µM; in the assay on HCT-116 colon, over 100 µM; with SK-MEL-28 melanoma, over 100 µM; in the assay with A549 NSCLC, 73.7 µM. For the same molecule, the TGI amounted to 37.2 µM in the assay on SNB-75 CNS, 36.4 µM in the assay with MALME-3M melanoma, 29.5 µM with SK-MEL-2 melanoma and 71.4 µM in the assay with HOP-62 NSCLC.

`CC(=O)Nc1ccc(N2C(=O)CS(=O)(=O)C2c2cccc(Oc3ccccc3)c2)cc1` (centres undefined): the TGI in the assay with HOP-92 NSCLC was 29.5 µM; in the assay on DU-145 prostate, over 100 µM; in the assay on PC-3 prostate it was 42.8 µM; in the assay with HCT-116 colon, 35.2 µM; with SK-MEL-28 melanoma it was 48.3 µM; in the assay with A549 NSCLC, 48.8 µM. Moreover, the TGI in the assay on SNB-75 CNS came out at 55.2 µM; in the assay with MALME-3M melanoma, 38.8 µM; in the assay with SK-MEL-2 melanoma, 37.3 µM; in the assay with HOP-62 NSCLC, 38.9 µM.

With `CC(/C=N/N(C)C1=NCCCCN1)=N/N(C)C1=NCCCCN1`, the TGI with HOP-92 NSCLC, in the assay on DU-145 prostate, in the assay on PC-3 prostate, in the assay on HCT-116 colon, with SK-MEL-28 melanoma and with A549 NSCLC was over 100 µM each time. The TGI in the assay with SNB-75 CNS, in the assay on MALME-3M melanoma, with SK-MEL-2 melanoma and with HOP-62 NSCLC was over 100 µM throughout.

On to `CC(=O)[C@H]1CC[C@H]2[C@@H]3CCC4=CC(=O)CC[C@]4(C)[C@H]3CC[C@]12C`, for which the TGI in the assay with HOP-92 NSCLC was found to be 71.3 µM; with DU-145 prostate, 94.3 µM; with PC-3 prostate it was 39.3 µM; in the assay with HCT-116 colon, 28.5 µM; in the assay on SK-MEL-28 melanoma, 37.7 µM; in the assay on A549 NSCLC, 88.5 µM. Moreover, the TGI in the assay with SNB-75 CNS is 65.6 µM; with MALME-3M melanoma it was 35.8 µM; with SK-MEL-2 melanoma, 44.3 µM; in the assay on HOP-62 NSCLC, 45.4 µM.

Regarding `O=C(O)CCC(C(=O)O)N1C(=O)c2ccccc2C1=O` (centres undefined), the TGI in the assay on HOP-92 NSCLC, with DU-145 prostate, with PC-3 prostate, in the assay with HCT-116 colon, with SK-MEL-28 melanoma and in the assay on A549 NSCLC was over 100 µM in each case. Moreover, the TGI in the assay with SNB-75 CNS, with MALME-3M melanoma, in the assay with SK-MEL-2 melanoma and with HOP-62 NSCLC was over 100 µM throughout.

Regarding `O=C1CSC(c2cccc(Cl)c2)N1c1c(O)c(Cl)cc(Br)c1Cl` (centres undefined), the TGI in the assay on HOP-92 NSCLC is 29.9 µM; in the assay on DU-145 prostate, over 100 µM; with PC-3 prostate, over 100 µM; in the assay on HCT-116 colon, 28.8 µM; in the assay on SK-MEL-28 melanoma, over 100 µM; in the assay with A549 NSCLC, over 100 µM. For the same molecule, the TGI with SNB-75 CNS is over 100 µM; in the assay with MALME-3M melanoma, over 100 µM; in the assay on SK-MEL-2 melanoma, 29 µM; in the assay on HOP-62 NSCLC, over 100 µM.

`COC(=O)c1c(O)ccc2c1c1c(n2Cc2ccc(OC)cc2)C(=O)c2ccccc2C1=O`: the TGI worked out at 25.3 µM in the assay with HOP-92 NSCLC; 52.5 µM with DU-145 prostate; 21.1 µM in the assay with PC-3 prostate; 19.7 µM in the assay on HCT-116 colon; 37.4 µM in the assay with SK-MEL-28 melanoma; 21.6 µM in the assay with A549 NSCLC. Further, the TGI was found to be 85.8 µM in the assay with SNB-75 CNS, 64.3 µM in the assay with MALME-3M melanoma, 25.6 µM in the assay on SK-MEL-2 melanoma and 33.2 µM in the assay on HOP-62 NSCLC.

On to `O=C(O)CS(=O)c1ccc2c3c(cccc13)C(=O)c1ccccc1-2` (centres undefined), for which the TGI in the assay on HOP-92 NSCLC, in the assay on DU-145 prostate, in the assay on PC-3 prostate, in the assay with HCT-116 colon, in the assay with SK-MEL-28 melanoma and in the assay on A549 NSCLC was over 100 µM in each case. Also, the TGI with SNB-75 CNS, in the assay with MALME-3M melanoma, in the assay on SK-MEL-2 melanoma and in the assay with HOP-62 NSCLC was over 100 µM throughout.

`O=c1[nH]nc(-c2ccc([N+](=O)[O-])cc2)n1/N=C/c1ccc([N+](=O)[O-])cc1`: the TGI with HOP-92 NSCLC, in the assay with DU-145 prostate, with PC-3 prostate, in the assay with HCT-116 colon, in the assay on SK-MEL-28 melanoma and in the assay with A549 NSCLC was over 100 µM in each case. Moreover, the TGI in the assay on SNB-75 CNS, in the assay on MALME-3M melanoma, with SK-MEL-2 melanoma and in the assay on HOP-62 NSCLC was over 100 µM throughout.

Regarding `Cc1ccc(S(=O)(=O)NC(=O)NC(Cc2ccccc2)C(=O)O)cc1` (centres undefined), the TGI in the assay with HOP-92 NSCLC, in the assay on DU-145 prostate, with PC-3 prostate, in the assay with HCT-116 colon, with SK-MEL-28 melanoma and with A549 NSCLC was over 100 µM in each case. Besides, the TGI with SNB-75 CNS, with MALME-3M melanoma, in the assay on SK-MEL-2 melanoma and in the assay with HOP-62 NSCLC was over 100 µM each time.

Turning to `COC(=O)c1c(C)ccc2c(O)c3c(cc12)C(=O)c1c2c(cc(O)c1C3=O)C1(C)OC(C)(O2)C(O)C(N(C)C)C1O` (centres undefined), the TGI is over 100 µM in the assay on HOP-92 NSCLC; 2.46 µM in the assay with DU-145 prostate; 4.89 µM in the assay on PC-3 prostate; 1.84 µM in the assay on HCT-116 colon; 11.8 µM in the assay on SK-MEL-28 melanoma; 12.7 µM with SNB-75 CNS. Besides, the TGI in the assay on MALME-3M melanoma is 6.42 µM; with SK-MEL-2 melanoma it was 5.65 µM; in the assay with HOP-62 NSCLC, 13.4 µM.

Values taken from PubChem BioAssay (NCI).
